Active and inactive are the calls of the source. The rule behind the calls is not given here.
Experiments:
UMSCC1 [1] = experiment: Growth inhibition of human UM-SCC-1 cells assessed as decrease in cell number at 1 uM by MTS assay relative to control; assay type: functional, cell-based
MIA PaCa-2 [2] = experiment: Growth inhibition of human MIAPaCa2 cells assessed as decrease in cell number at 1 uM incubated for 96 hrs by MTS assay relative to control; assay type: functional
MIA PaCa-2 [3] = experiment: Growth inhibition of human MIAPaCa2 cells assessed as decrease in cell number at 1 uM incubated for 48 hrs in presence of 1 uM OGF by MTS assay relative to control; assay type: functional; conditions: MIA PaCa-2, 48 h, read-out: GI
MIA PaCa-2 [4] = experiment: Growth inhibition of human MIAPaCa2 cells assessed as decrease in cell number at 10 uM incubated for 96 hrs in presence of 1 uM OGF by MTS assay relative to control; assay type: functional
MIA PaCa-2 [5] = experiment: Growth inhibition of human MIAPaCa2 cells assessed as decrease in cell number at 10 uM incubated for 72 hrs in presence of 1 uM OGF by MTS assay relative to control; assay type: functional
MIA PaCa-2 [6] = experiment: Growth inhibition of human MIAPaCa2 cells assessed as decrease in cell number at 1 uM incubated for 24 to 96 hrs in presence of 1 uM OGF by MTS assay relative to control; assay type: functional; set-up: scale not given: the % may be the effect or the level left
MIA PaCa-2 [7] = experiment: Growth inhibition of human MIAPaCa2 cells assessed as decrease in cell number at 10 uM incubated for 48 hrs in presence of 1 uM OGF by MTS assay relative to control; assay type: functional
MIA PaCa-2 [8] = experiment: Growth inhibition of human MIAPaCa2 cells assessed as decrease in cell number at 1 uM incubated for 48 to 96 hrs by MTS assay relative to control; assay type: functional; set-up: scale not given: the % may be the effect or the level left
MIA PaCa-2 [9] = experiment: Growth inhibition of human MIAPaCa2 cells assessed as decrease in cell number at 10 uM incubated for 24 hrs in presence of 1 uM OGF by MTS assay relative to control; assay type: functional
MIA PaCa-2 [10] = experiment: Growth inhibition of human MIAPaCa2 cells assessed as decrease in cell number at 1 uM incubated for 72 hrs in presence of 1 uM OGF by MTS assay relative to control; assay type: functional; conditions: MIA PaCa-2, 72 h, read-out: GI
MIA PaCa-2 [11] = experiment: Growth inhibition of human MIAPaCa2 cells assessed as decrease in cell number at 1 uM incubated for 24 hrs in presence of 1 uM OGF by MTS assay relative to control; assay type: functional; conditions: MIA PaCa-2, 24 h, read-out: GI
UMSCC1 [12] = experiment: Antitumor activity against human UM-SCC-1 cells xenografted in nu/nu mouse assessed as mouse mortality at 8 mg/kg dosed every other day measured on day 19 relative to control; assay type: functional, organism-based
UMSCC1 [13] = experiment: Growth inhibition of human UM-SCC-1 cells assessed as decrease in cell number at 0.01 uM incubated for 72 hrs in presence of 1 uM OGF by MTT assay relative to control; assay type: functional
CAL-27 [14] = experiment: Growth inhibition of human CAL27 cells assessed as decrease in cell number at 0.0001 uM with drug and media changed daily incubated for 48 hrs by MTS assay relative to control; assay type: functional; conditions: CAL-27, 48 h, read-out: GI
UMSCC1 [15] = experiment: Growth inhibition of human UM-SCC-1 cells assessed as decrease in cell number at 0.01 uM in presence of 1 uM OGF incubated for 48 hrs by MTS assay relative to control; assay type: functional
UMSCC1 [16] = experiment: Growth inhibition of human UM-SCC-1 cells assessed as decrease in cell number at 0.01 uM in presence of 1 uM OGF incubated for 72 hrs by MTS assay relative to control; assay type: functional
UMSCC1 [17] = experiment: Induction of apoptosis in human UM-SCC-1 cells assessed as increase in caspse-3 levels at 0.01 uM incubated for 6 days by flow cytometry; assay type: functional
UMSCC1 [18] = experiment: Antitumor activity against human UM-SCC-1 cells xenografted in nu/nu mouse assessed as latency time for measurable (62.5 mm3) tumors at 8 mg/kg dosed every other day and co-treated with 10 mg/kg/day OGF (Rvb <=2 weeks); assay type: functional
UMSCC1 [19] = experiment: Antitumor activity against human UM-SCC-1 cells xenografted in nu/nu mouse assessed as time duration for delay in visible tumor development at 8 mg/kg dosed every other day and co-treated with 10 mg/kg/day OGF relative to control; assay type: functional
UMSCC1 [20] = experiment: Induction of apoptosis in human UM-SCC-1 cells assessed as increase in caspse-3 levels at 0.01 uM in presence of 1 uM OGF incubated for 6 days by flow cytometry; assay type: functional
[21] = Toxicity in mouse xenografted with human UM-SCC-1 cells assessed as distension of abdomens with associated megacolon at 8 mg/kg dosed every other day by histological analysis; assay type: organism-based; conditions: in vivo
UMSCC1 [22] = experiment: Induction of apoptosis in human UM-SCC-1 cells assessed as increase in caspse-3 levels at 0.01 uM incubated for 1 day by flow cytometry; assay type: functional, cell-based
UMSCC1 [23] = experiment: Antitumor activity against human UM-SCC-1 cells xenografted in nu/nu mouse assessed as reduction in tumor at 8 mg/kg dosed every other day and co-treated with 10 mg/kg/day OGF measured on 4th day of measurable tumors relative to control; assay type: functional; set-up: scale not given: the % may be the effect or the level left
UMSCC1 [24] = experiment: Growth inhibition of human UM-SCC-1 cells assessed as decrease in cell number at 0.01 uM incubated for 96 hrs in presence of 1 uM OGF by MTT assay relative to control; assay type: functional
UMSCC1 [25] = experiment: Growth inhibition of human UM-SCC-1 cells assessed as decrease in cell number at 0.01 uM in presence of 1 uM OGF incubated for 96 hrs by MTS assay relative to control; assay type: functional
UMSCC1 [26] = experiment: Antitumor activity against human UM-SCC-1 cells xenografted in nu/nu mouse assessed as mouse mortality at 8 mg/kg dosed every other day measured on day 40 co-treated with 10 mg/kg/day OGF relative to control; assay type: functional, organism-based
UMSCC1 [27] = experiment: Growth inhibition of human UM-SCC-1 cells assessed as decrease in cell number at 0.1 uM incubated for 96 hrs in presence of 1 uM OGF by MTT assay relative to control; assay type: functional
UMSCC1 [28] = experiment: Growth inhibition of human UM-SCC-1 cells assessed as decrease in cell number at 0.1 uM incubated for 72 hrs in presence of 1 uM OGF by MTT assay relative to control; assay type: functional
UMSCC1 [29] = experiment: Antitumor activity against human UM-SCC-1 cells xenografted in nu/nu mouse assessed as reduction in tumor measured on 22nd to 36th day of measurable tumors at 8 mg/kg dosed every other day relative to control; assay type: functional, organism-based
UMSCC1 [30] = experiment: Induction of apoptosis in human UM-SCC-1 cells assessed as increase in caspse-3 levels at 0.01 uM in presence of 1 uM OGF incubated for 1 to 3 days by flow cytometry; assay type: functional
CAL-27 [31] = experiment: Growth inhibition of human CAL27 cells assessed as decrease in cell number at 0.0001 uM with drug and media changed daily in presence of 1 uM OGF incubated for 48 hrs by MTS assay relative to control; assay type: functional
UMSCC1 [32] = experiment: Antitumor activity against human UM-SCC-1 cells xenografted in nu/nu mouse assessed as reduction in tumor at 8 mg/kg dosed every other day and co-treated with 10 mg/kg/day OGF measured on 22nd to 36th day of measurable tumors relative to control; assay type: functional, organism-based
UMSCC1 [33] = experiment: Antitumor activity against human UM-SCC-1 cells xenografted in nu/nu mouse assessed as reduction in tumor measured on 6th day of measurable tumors at 8 mg/kg dosed every other day relative to control; assay type: functional; set-up: scale not given: the % may be the effect or the level left
UMSCC1 [34] = experiment: Antitumor activity against human UM-SCC-1 cells xenografted in nu/nu mouse assessed as reduction in tumor at 8 mg/kg dosed every other day and co-treated with at 10 mg/kg/day OGF measured on 16th to 20th day of measurable tumors relative to control; assay type: functional, organism-based
UMSCC1 [35] = experiment: Growth inhibition of human UM-SCC-1 cells assessed as decrease in cell number at 0.01 uM in presence of 1 uM OGF and 1 uM opioid antagonist naloxone incubated for 24 to 96 hrs by MTS assay relative to control; assay type: functional
[36] = Toxicity in mouse xenografted with human UM-SCC-1 cells assessed as effect on large intestine/cecum/small bowel at 8 mg/kg dosed every other day by histological analysis; assay type: organism-based; conditions: in vivo
UMSCC1 [37] = experiment: Antitumor activity against human UM-SCC-1 cells xenografted in nu/nu mouse assessed as latency time for measurable (62.5 mm3) tumors at 8 mg/kg dosed every other day (Rvb <=2 weeks); assay type: functional
[38] = Toxicity in mouse xenografted with human UM-SCC-1 cells assessed as induction of stool hardening at 8 mg/kg dosed every other day by histological analysis; assay type: organism-based; conditions: in vivo
UMSCC1 [39] = experiment: Antitumor activity against human UM-SCC-1 cells xenografted in nu/nu mouse assessed as reduction in tumor at 8 mg/kg dosed every other day and co-treated with 10 mg/kg/day OGF measured on 6th day of measurable tumors relative to control; assay type: functional; set-up: scale not given: the % may be the effect or the level left
UMSCC1 [40] = experiment: Growth inhibition of human UM-SCC-1 cells assessed as decrease in cell number at 0.01 uM in presence of 1 uM OGF incubated for 48 hrs followed by compound wash out by 50% replacement of media and measured after 48 hrs by MTS assay relative to control; assay type: functional, cell-based
UMSCC1 [41] = experiment: Inhibition of DNA synthesis in human UM-SCC-1 cells assessed as reduction in BrdU incorporation at 0.01 uM in presence of 1 uM OGF incubated for 72 hrs by fluorescence microscopy; assay type: functional
UMSCC1 [42] = experiment: Growth inhibition of human UM-SCC-1 cells assessed as decrease in cell number at 0.01 uM incubated for 48 hrs followed by compound wash out by 50% replacement of media and measured after 48 hrs by MTS assay relative to control; assay type: functional, cell-based

SMILES: NC(=O)[C@H](Cc1ccccc1)NC(=O)[C@H](Cc1c[nH]c2ccccc12)NC(=O)[C@@H]1CCCN1C(=O)[C@@H](N)Cc1ccc(O)cc1
- growth inhibition (GI) (UMSCC1 [1]): inactive
- growth inhibition (GI) (MIA PaCa-2 [2]): inactive

SMILES: NC(=O)[C@H](Cc1ccccc1)NC(=O)[C@H](Cc1ccccc1)NC(=O)[C@@H]1CCCN1C(=O)[C@@H](N)Cc1ccc(O)cc1
- growth inhibition (GI) (UMSCC1 [1]): inactive
- growth inhibition (GI) (MIA PaCa-2 [2]): inactive

SMILES: O=c1[nH]cc(F)c(=O)[nH]1 [FLUOROURACIL]
- inhibition of growth at 1 µM (MIA PaCa-2 [3]): 22.2%
- growth inhibition (GI) (MIA PaCa-2 [4]): 47.4%
- growth inhibition (GI) (MIA PaCa-2 [5]): 39.7%
- Activity (MIA PaCa-2 [6]): 13 - 30%
- growth inhibition (GI) (MIA PaCa-2 [7]): 35.7%
- Activity (MIA PaCa-2 [8]): 11 - 15%
- growth inhibition (GI) (MIA PaCa-2 [9]): 21.5%
- inhibition of growth at 1 µM (MIA PaCa-2 [10]): 23.6%
- inhibition of growth at 1 µM (MIA PaCa-2 [11]): 13.2%

SMILES: CC(=O)O[C@H]1C(=O)[C@@]2(C)[C@H]([C@H](OC(=O)c3ccccc3)[C@]3(O)C[C@H](OC(=O)[C@H](O)[C@@H](NC(=O)c4ccccc4)c4ccccc4)C(C)=C1C3(C)C)[C@]1(OC(C)=O)CO[C@@H]1C[C@@H]2O [PACLITAXEL]
- Activity (UMSCC1 [12]): inactive
- growth inhibition (GI) (UMSCC1 [13]): 30.6%
- inhibition of growth at 0.0001 µM (CAL-27 [14]): 22 to 35%
- growth inhibition (GI) (UMSCC1 [15]): 48%
- growth inhibition (GI) (UMSCC1 [16]): 63%
- fold change (FC) (UMSCC1 [17]): 2.7
- Time (UMSCC1 [18]): 17 days
- Time (UMSCC1 [19]): 4 days
- fold change (FC) (UMSCC1 [20]): 13.9
- Activity [21]: Toxic
- Activity (UMSCC1 [22]): inactive
- Activity (UMSCC1 [23]): 29%
- growth inhibition (GI) (UMSCC1 [24]): 36.3%
- growth inhibition (GI) (UMSCC1 [25]): 69%
- Activity (UMSCC1 [26]): Active
- growth inhibition (GI) (UMSCC1 [27]): 78.4%
- growth inhibition (GI) (UMSCC1 [28]): 68.4%
- Activity (UMSCC1 [29]): inactive
- fold change (FC) (UMSCC1 [30]): 5.6
- growth inhibition (GI) (CAL-27 [31]): 61%
- Activity (UMSCC1 [32]): Active
- Activity (UMSCC1 [33]): 29 - 33%
- Activity (UMSCC1 [34]): Active
- growth inhibition (GI) (UMSCC1 [35]): 8.8 - 26%
- Activity [36]: Toxic
- Time (UMSCC1 [37]): <=12 day
- Activity [38]: Toxic
- Activity (UMSCC1 [39]): 29 - 33%
- growth inhibition (GI) (UMSCC1 [40]): Active
- inhibition (INH) (UMSCC1 [41]): 16%
- growth inhibition (GI) (UMSCC1 [42]): Active

Source: ChEMBL document CHEMBL4420060, “Combinatorial therapies for the treatment of neoplasias using the opioid growth factor receptor” (2013)
